Test system: Capsicum frutescens Mill
Assay: Spray of abiotic elicitors to flowers of field-grown plants; HPLC of phenyl propanoid intermediates and capsaicinoids in harvested fruits
Format: in vivo
From the text: The seedlings of Capsicum frutescens Mill were raised in soil bed. The seeds of C. frutescens were collected from wild from BR Hills, […]. The 2 months old seedling plants were transplanted to the soil and grown under controlled conditions to avoid cross-pollination after the onset of flowering. The plants were established well 2 months after transplantation and started to flower by 90 days with proper agronomic practices with regard to irrigation, fertilizer application, weeding and care from major pests and diseases. The abiotic elicitor (Methyl Jasmonate) was purchased from Duchefa Pvt.LTD. Methyl Jasmonate stock solution was prepared and later used at different concentrations (1 mM, 2.5 mM and 5 mM) for spraying to the whole plant containing flowers, completely opened flowers, and braches containing flowers. The flowers of C. frutescens were sprayed with water, which was taken as control. […] The extracted samples were centrifuged at 4000 rpm for 10 minutes. The samples were subjected to High Performance Liquid Chromatography for quantification of phenyl proponoid intermediates and major Capsaicinoids. […] The detection was at 236 nm and flow rate was maintained at 1 ml/min. […] The reagent used was of HPLC grade. The intermediates of phenyl proponoid pathway (Phenylalanine, Cinnamic acid, Coumaric acid, Caffeic acid, Ferulic acid and Vanillylamine) and two major Capsaicinoids (Capsaicin and Dihydrocapsaicin) were purchased from Sigma Co. […] Standard deviation of samples was calculated according to Tukey's method. The seedlings of Capsicum frutescens Mill were raised in soil bed. The seeds of C. frutescens were collected from BR. Hills, […]. The 2 months old seedling plants were transplanted to the soil and grown under controlled conditions to avoid cross-pollination after the onset of flowering. The plants were established well two months after transplantation and started to flower by 90 days with proper agronomic practices with regard to irrigation, fertilizer application, weeding and care from major pests and diseases. […] USA. […] The flowers of C. frutescens were sprayed with water, which was taken as control. […] The extracted samples were centrifuged at 4000 rpm for 10 minutes. The samples were subjected to High Performance Liquid Chromatography for quantification of phenyl proponoid intermediates and major Capsaicinoids. […] The detection was at 236nm and flow rate was maintained at 1 ml/min. […] The reagent used was of HPLC grade. The intermediates of phenyl propanoid pathway (Phenylalanine, Cinnamic acid, Coumaric acid, Caffeic acid, Ferulic acid and Vanillylamine) and two major Capsaicinoids (Capsaicin and Dihydrocapsaicin) were purchased from Sigma Co. […] Standard deviation of samples was calculated according to Tukey's method.

[1] = fruits 25 days after anthesis, 1 mM sprayed
[2] = fruits 25 days after anthesis, 2.5 mM sprayed
[3] = fruits 25 days after anthesis, 5 mM sprayed
[4] = fruits 30 days after anthesis, 1 mM sprayed
[5] = fruits 30 days after anthesis, 2.5 mM sprayed
[6] = fruits 30 days after anthesis, 5 mM sprayed
[7] = fruits 35 days after anthesis, 1 mM sprayed
[8] = fruits 35 days after anthesis, 2.5 mM sprayed
[9] = fruits 35 days after anthesis, 5 mM sprayed
[10] = fruits 40 days after anthesis, 1 mM sprayed
[11] = fruits 40 days after anthesis, 2.5 mM sprayed
[12] = fruits 40 days after anthesis, 5 mM sprayed

SMILES: CC/C=C\CC1C(=O)CCC1CC(=O)OC (centres unmarked) [Methyl Jasmonate]
- Caffeic Acid level [1]: 3 ± 0.9 µM
- Capsaicin level [1]: 17 ± 1.8 µM
- Cinnamic Acid level [1]: 10 ± 1.0 µM
- Coumaric Acid level [1]: 44 ± 3.2 µM
- Dihydrocapsaicin level [1]: 5 ± 0.8 µM
- Ferulic Acid level [1]: 33 ± 1.9 µM
- Phenylalanine level [1]: 388 ± 8.2 µM
- Vanillylamine level [1]: 49 ± 3.4 µM
- Caffeic Acid level [2]: 3 ± 0.8 µM
- Capsaicin level [2]: 18 ± 1.2 µM
- Cinnamic Acid level [2]: 11 ± 0.8 µM
- Coumaric Acid level [2]: 45 ± 3.8 µM
- Dihydrocapsaicin level [2]: 6 ± 0.5 µM
- Ferulic Acid level [2]: 49 ± 2.5 µM
- Phenylalanine level [2]: 424 ± 9.2 µM
- Vanillylamine level [2]: 63 ± 4.5 µM
- Caffeic Acid level [3]: 3 ± 0.6 µM
- Capsaicin level [3]: 16 ± 1.4 µM
- Cinnamic Acid level [3]: 9 ± 0.8 µM
- Coumaric Acid level [3]: 42 ± 3.9 µM
- Dihydrocapsaicin level [3]: 7 ± 0.8 µM
- Ferulic Acid level [3]: 48 ± 3.4 µM
- Phenylalanine level [3]: 391 ± 10.0 µM
- Vanillylamine level [3]: 42 ± 2.9 µM
- Caffeic Acid level [4]: 4 ± 1.1 µM
- Capsaicin level [4]: 41 ± 3.5 µM
- Cinnamic Acid level [4]: 12 ± 0.9 µM
- Coumaric Acid level [4]: 38 ± 3.4 µM
- Dihydrocapsaicin level [4]: 13 ± 1.0 µM
- Ferulic Acid level [4]: 68 ± 5.4 µM
- Phenylalanine level [4]: 563 ± 12.2 µM
- Vanillylamine level [4]: 61 ± 5.4 µM
- Caffeic Acid level [5]: 12 ± 1.2 µM
- Capsaicin level [5]: 48 ± 3.6 µM
- Cinnamic Acid level [5]: 35 ± 2.1 µM
- Coumaric Acid level [5]: 47 ± 4.2 µM
- Dihydrocapsaicin level [5]: 14 ± 0.9 µM
- Ferulic Acid level [5]: 80 ± 4.5 µM
- Phenylalanine level [5]: 649 ± 8.7 µM
- Vanillylamine level [5]: 96 ± 6.9 µM
- Caffeic Acid level [6]: 10 ± 0.9 µM
- Capsaicin level [6]: 48 ± 6.8 µM
- Cinnamic Acid level [6]: 27 ± 1.8 µM
- Coumaric Acid level [6]: 45 ± 3.8 µM
- Dihydrocapsaicin level [6]: 13 ± 0.7 µM
- Ferulic Acid level [6]: 73 ± 4.5 µM
- Phenylalanine level [6]: 627 ± 7.4 µM
- Vanillylamine level [6]: 58 ± 5.1 µM
- Caffeic Acid level [7]: 12 ± 1.2 µM
- Capsaicin level [7]: 36 ± 3.8 µM
- Cinnamic Acid level [7]: 23 ± 1.5 µM
- Coumaric Acid level [7]: 44 ± 4.2 µM
- Dihydrocapsaicin level [7]: 15 ± 1.2 µM
- Ferulic Acid level [7]: 122 ± 8 µM
- Phenylalanine level [7]: 879 ± 5.9 µM
- Vanillylamine level [7]: 111 ± 10.8 µM
- Caffeic Acid level [8]: 37 ± 3.2 µM
- Cinnamic Acid level [8]: 68 ± 4.5 µM
- Coumaric Acid level [8]: 84 ± 4.1 µM
- Dihydrocapsaicin level [8]: 19 ± 1.3 µM
- Ferulic Acid level [8]: 150 ± 8 µM
- Phenylalanine level [8]: 1052 ± 11 µM
- Vanillylamine level [8]: 107 ± 10.2 µM
- Caffeic Acid level [9]: 20 ± 1.2 µM
- Capsaicin level [9]: 35 ± 2.9 µM
- Cinnamic Acid level [9]: 36 ± 3.2 µM
- Coumaric Acid level [9]: 59 ± 3.8 µM
- Dihydrocapsaicin level [9]: 12 ± 1.0 µM
- Ferulic Acid level [9]: 121 ± 12 µM
- Phenylalanine level [9]: 921 ± 8.9 µM
- Vanillylamine level [9]: 73 ± 7.1 µM
- Caffeic Acid level [10]: 9 ± 0.8 µM
- Capsaicin level [10]: 33 ± 2.4 µM
- Cinnamic Acid level [10]: 14 ± 1.2 µM
- Coumaric Acid level [10]: 39 ± 1.9 µM
- Dihydrocapsaicin level [10]: 15 ± 1.2 µM
- Ferulic Acid level [10]: 107 ± 11 µM
- Phenylalanine level [10]: 516 ± 8.4 µM
- Vanillylamine level [10]: 78 ± 6.8 µM
- Caffeic Acid level [11]: 15 ± 1.2 µM
- Capsaicin level [11]: 42 ± 3.2 µM
- Cinnamic Acid level [11]: 23 ± 1.9 µM
- Coumaric Acid level [11]: 73 ± 2.4 µM
- Dihydrocapsaicin level [11]: 18 ± 1.4 µM
- Ferulic Acid level [11]: 114 ± 12 µM
- Phenylalanine level [11]: 584 ± 9.2 µM
- Vanillylamine level [11]: 98 ± 5.8 µM
- Caffeic Acid level [12]: 13 ± 1.3 µM
- Capsaicin level [12]: 28 ± 3.8 µM
- Cinnamic Acid level [12]: 20 ± 1.5 µM
- Coumaric Acid level [12]: 44 ± 4.1 µM
- Dihydrocapsaicin level [12]: 11 ± 1.3 µM
- Ferulic Acid level [12]: 67 ± 4.5 µM
- Phenylalanine level [12]: 547 ± 7.4 µM
- Vanillylamine level [12]: 61 ± 5.1 µM

SMILES: O=C([O-])c1ccccc1O.[Na+] [Salicylic Acid sodium salt, Salicylic acid sodium salt]
- Caffeic Acid level [1]: 21 ± 1.0 µM
- Capsaicin level [1]: 16 ± 08 µM
- Cinnamic Acid level [1]: 3.4 ± 0.9 µM
- Coumaric Acid level [1]: 12.0 ± 1.2 µM
- Dihydrocapsaicin level [1]: 5 ± 0.7 µM
- Ferulic Acid level [1]: 31 ± 1.2 µM
- Phenylalanine level [1]: 378 ± 8.2 µM
- Vanillylamine level [1]: 48 ± 1.4 µM
- Caffeic Acid level [2]: 25 ± 1.1 µM
- Capsaicin level [2]: 17 ± 1.1 µM
- Cinnamic Acid level [2]: 3.9 ± 0.7 µM
- Coumaric Acid level [2]: 15 ± 1.4 µM
- Dihydrocapsaicin level [2]: 5.5 ± 0.6 µM
- Ferulic Acid level [2]: 32 ± 1.4 µM
- Phenylalanine level [2]: 389 ± 9.2 µM
- Vanillylamine level [2]: 49 ± 1.8 µM
- Caffeic Acid level [3]: 28 ± 1.2 µM
- Capsaicin level [3]: 16 ± 1.1 µM
- Cinnamic Acid level [3]: 3.5 ± 0.6 µM
- Coumaric Acid level [3]: 14 ± 1.2 µM
- Dihydrocapsaicin level [3]: 6 ± 0.7 µM
- Ferulic Acid level [3]: 34 ± 1.9 µM
- Phenylalanine level [3]: 379 ± 10.0 µM
- Vanillylamine level [3]: 47 ± 2.1 µM
- Caffeic Acid level [4]: 28 ± 1.0 µM
- Capsaicin level [4]: 35 ± 2.4 µM
- Cinnamic Acid level [4]: 4.1 ± 1.1 µM
- Coumaric Acid level [4]: 12 ± 1.1 µM
- Dihydrocapsaicin level [4]: 11 ± 1.1 µM
- Ferulic Acid level [4]: 35 ± 4.1 µM
- Phenylalanine level [4]: 514 ± 12.2 µM
- Vanillylamine level [4]: 60 ± 1.9 µM
- Caffeic Acid level [5]: 30 ± 1.5 µM
- Capsaicin level [5]: 44 ± 1.1 µM
- Cinnamic Acid level [5]: 4.9 ± 1.5 µM
- Coumaric Acid level [5]: 18 ± 1.2 µM
- Dihydrocapsaicin level [5]: 12 ± 0.1 µM
- Ferulic Acid level [5]: 35 ± 3.9 µM
- Phenylalanine level [5]: 519 ± 8.7 µM
- Vanillylamine level [5]: 67 ± 2.1 µM
- Caffeic Acid level [6]: 32 ± 1.1 µM
- Capsaicin level [6]: 42 ± 2.8 µM
- Cinnamic Acid level [6]: 4.5 ± 1.1 µM
- Coumaric Acid level [6]: 15 ± 1.2 µM
- Dihydrocapsaicin level [6]: 10 ± 0.6 µM
- Ferulic Acid level [6]: 38 ± 3.4 µM
- Phenylalanine level [6]: 528 ± 7.4 µM
- Vanillylamine level [6]: 65 ± 4.2 µM
- Caffeic Acid level [7]: 29 ± 1.0 µM
- Capsaicin level [7]: 38 ± 2.8 µM
- Cinnamic Acid level [7]: 18 ± 1.0 µM
- Coumaric Acid level [7]: 24 ± 1.2 µM
- Dihydrocapsaicin level [7]: 15 ± 1.0 µM
- Ferulic Acid level [7]: 64 ± 5 µM
- Phenylalanine level [7]: 778 ± 5.9 µM
- Vanillylamine level [7]: 68 ± 1.9 µM
- Caffeic Acid level [8]: 42 ± 1.1 µM
- Cinnamic Acid level [8]: 25 ± 1.1 µM
- Coumaric Acid level [8]: 30 ± 1.5 µM
- Dihydrocapsaicin level [8]: 16 ± 1.0 µM
- Ferulic Acid level [8]: 69 ± 6.8 µM
- Phenylalanine level [8]: 789 ± 11 µM
- Vanillylamine level [8]: 77 ± 2.8 µM
- Capsaicin level (fruits 35 days after anthesis, 2.5 mM sprayed, sodium salt): 39 ± 2.8 µM
- Caffeic Acid level [9]: 32 ± 1.0 µM
- Capsaicin level [9]: 36 ± 2.1 µM
- Cinnamic Acid level [9]: 24 ± 1.1 µM
- Coumaric Acid level [9]: 21 ± 1.1 µM
- Dihydrocapsaicin level [9]: 15 ± 0.9 µM
- Ferulic Acid level [9]: 65 ± 4.5 µM
- Phenylalanine level [9]: 891 ± 8.9 µM
- Vanillylamine level [9]: 73 ± 3.6 µM
- Caffeic Acid level [10]: 29 ± 1.1 µM
- Capsaicin level [10]: 31 ± 2.1 µM
- Cinnamic Acid level [10]: 15 ± 1.0 µM
- Coumaric Acid level [10]: 21 ± 1.1 µM
- Dihydrocapsaicin level [10]: 14 ± 1.0 µM
- Ferulic Acid level [10]: 62 ± 5 µM
- Phenylalanine level [10]: 532 ± 8.4 µM
- Vanillylamine level [10]: 64 ± 5.8 µM
- Caffeic Acid level [11]: 35 ± 1.0 µM
- Capsaicin level [11]: 34 ± 2.8 µM
- Cinnamic Acid level [11]: 23 ± 1.1 µM
- Coumaric Acid level [11]: 29 ± 1.4 µM
- Dihydrocapsaicin level [11]: 15 ± 1.0 µM
- Ferulic Acid level [11]: 65 ± 6 µM
- Phenylalanine level [11]: 549 ± 9.2 µM
- Vanillylamine level [11]: 68 ± 4.8 µM
- Caffeic Acid level [12]: 34 ± 1.1 µM
- Capsaicin level [12]: 38 ± 3.4 µM
- Cinnamic Acid level [12]: 20 ± 1.0 µM
- Coumaric Acid level [12]: 24 ± 1.5 µM
- Dihydrocapsaicin level [12]: 14 ± 1.1 µM
- Ferulic Acid level [12]: 67 ± 6 µM
- Phenylalanine level [12]: 547 ± 7.4 µM
- Vanillylamine level [12]: 65 ± 6.1 µM

From US20060073121A1, “Spray formulation for pungency enhancement in Capsicum” (priority 2004, published 2006)
